pEC50: −log10 of the molar value. Activity calls are given as the source filed them. No cut-off for these calls is given here.
How the values were obtained:
[1] = tested on: B16-F10; test: Antiproliferative activity against mouse B16F10 cells after 48 hrs by MTT assay; format: functional, cell-based; conditions: B16-F10, 48 h
[2] = tested on: Caco-2; test: Antiproliferative activity against human Caco2 cells after 48 hrs by MTT assay; format: functional, cell-based; conditions: Caco-2, 48 h
[3] = tested on: Caco-2; test: Antiproliferative activity against human Caco2 cells at 10 uM after 48 hrs by MTT assay relative to control; format: functional
[4] = tested on: A-431; test: Antiproliferative activity against human A431 cells at 1 uM after 48 hrs by MTT assay relative to control; format: functional
[5] = tested on: Caco-2; test: Antiproliferative activity against human Caco2 cells at 1 uM after 48 hrs by MTT assay relative to control; format: functional
[6] = tested on: Huh-7; test: Antiproliferative activity against human HuH7 cells at 1 uM after 48 hrs by MTT assay relative to control; format: functional
[7] = tested on: B16-F10; test: Antiproliferative activity against mouse B16F10 cells at 10 uM after 48 hrs by MTT assay relative to control; format: functional
[8] = tested on: C6; test: Cytotoxicity against rat C6 cells assessed as decrease in cell index at 5 uM after 3 hrs; format: functional, cell-based
[9] = tested on: C6; test: Cytotoxicity against rat C6 cells assessed as decrease in cell index at 25 uM after 3 hrs; format: functional, cell-based
[10] = tested on: DU-145; test: Antiproliferative activity against human DU145 cells assessed as higher lowest toxic concentration after 48 hrs by MTT assay relative to control; format: functional
[11] = tested on: DU-145; test: Antiproliferative activity against human DU145 cells at 1 uM after 48 hrs by MTT assay relative to control; format: functional, cell-based
[12] = Cytotoxicity against mouse astrocytes assessed as decrease in cell viability at 1 to 100 uM after 48 hrs by propidium iodide incorporation assay; format: cell-based; conditions: astrocyte
[13] = tested on: Huh-7; test: Antiproliferative activity against human HuH7 cells at 10 uM after 48 hrs by MTT assay relative to control; format: functional
[14] = tested on: Huh-7; test: Antiproliferative activity against human HuH7 cells assessed as higher lowest toxic concentration after 48 hrs by MTT assay relative to control; format: functional
[15] = tested on: A-431; test: Antiproliferative activity against human A431 cells after 48 hrs by MTT assay; format: functional, cell-based; conditions: A-431, 48 h
[16] = tested on: MDA-MB-435; test: Antiproliferative activity against human MDA-MB-435 cells at 10 uM after 48 hrs by MTT assay relative to control; format: functional
[17] = tested on: C6; test: Antiproliferative activity against rat C6 cells assessed as higher lowest toxic concentration after 48 hrs by MTT assay relative to control; format: functional
[18] = tested on: MDA-MB-231; test: Antiproliferative activity against human MDA-MB-231 cells at 1 uM after 48 hrs by MTT assay relative to control; format: functional
[19] = tested on: Caco-2; test: Antiproliferative activity against human Caco2 cells assessed as higher lowest toxic concentration after 48 hrs by MTT assay relative to control; format: functional
[20] = tested on: MDA-MB-435; test: Antiproliferative activity against human MDA-MB-435 cells assessed as higher lowest toxic concentration after 48 hrs by MTT assay relative to control; format: functional
[21] = tested on: MDA-MB-231; test: Antiproliferative activity against human MDA-MB-231 cells assessed as higher lowest toxic concentration after 48 hrs by MTT assay relative to control; format: functional
[22] = tested on: Hs-578T; test: Antiproliferative activity against human Hs 578T cells at 10 uM after 24 hrs by SRB assay; format: functional, cell-based
[23] = Cytotoxicity against mouse astrocytes assessed as decrease in cell viability at 1 to 100 uM after 48 hrs by Hoechst 33342 staining; format: cell-based; conditions: astrocyte
[24] = tested on: A-431; test: Antiproliferative activity against human A431 cells assessed as higher lowest toxic concentration after 48 hrs by MTT assay relative to control; format: functional
[25] = tested on: SF-295; test: Antiproliferative activity against human SF295 cells at 10 uM after 24 hrs by SRB assay; format: functional, cell-based
[26] = tested on: DU-145; test: Antiproliferative activity against human DU145 cells after 48 hrs by MTT assay; format: functional, cell-based; conditions: DU-145, 48 h
[27] = tested on: MDA-MB-435; test: Antiproliferative activity against human MDA-MB-435 cells at 1 uM after 48 hrs by MTT assay relative to control; format: functional
[28] = tested on: C6; test: Antiproliferative activity against rat C6 cells at 1 uM after 48 hrs by MTT assay relative to control; format: functional
[29] = tested on: SNB-75; test: Antiproliferative activity against human SNB75 cells at 10 uM after 24 hrs by SRB assay; format: functional, cell-based
[30] = tested on: A-431; test: Antiproliferative activity against human A431 cells at 10 uM after 48 hrs by MTT assay relative to control; format: functional
[31] = tested on: Huh-7; test: Antiproliferative activity against human HuH7 cells after 48 hrs by MTT assay; format: functional, cell-based; conditions: Huh-7, 48 h
[32] = tested on: MDA-MB-231; test: Antiproliferative activity against human MDA-MB-231 cells at 10 uM after 48 hrs by MTT assay relative to control; format: functional
[33] = tested on: DU-145; test: Antiproliferative activity against human DU145 cells at 10 uM after 48 hrs by MTT assay relative to control; format: functional
[34] = tested on: C6; test: Cytotoxicity against rat C6 cells at 10 uM after 1 hr by LDH Assay; format: functional, cell-based
[35] = tested on: B16-F10; test: Antiproliferative activity against mouse B16F10 cells assessed as higher lowest toxic concentration after 48 hrs by MTT assay relative to control; format: functional
[36] = tested on: C6; test: Cytotoxicity against rat C6 cells assessed as decrease in cell index at 50 uM after 2 hrs; format: functional, cell-based
[37] = tested on: C6; test: Cytotoxicity against rat C6 cells assessed as decrease in cell index at 1 uM after 3 hrs; format: functional, cell-based
[38] = Cytotoxicity against mouse astrocytes assessed as decrease in cell viability at 1 to 100 uM after 48 hrs by neutral red incorporation assay; format: cell-based; conditions: astrocyte
[39] = tested on: C6; test: Antiproliferative activity against rat C6 cells at 10 uM after 48 hrs by MTT assay relative to control; format: functional
[40] = tested on: C6; test: Cytotoxicity against rat C6 cells assessed as decrease in cell index at 10 uM after 3 hrs; format: functional, cell-based
[41] = tested on: C6; test: Antiproliferative activity against rat C6 cells at 0.1 to 100 uM after 48 hrs by neutral red incorporation assay; format: functional, cell-based
[42] = tested on: C6; test: Cytotoxicity against rat C6 cells assessed as decrease in cell index at 100 uM after 1 hr; format: functional, cell-based
[43] = tested on: C6; test: Antiproliferative activity against rat C6 cells after 48 hrs by MTT assay; format: functional, cell-based; conditions: C6, 48 h
[44] = tested on: B16-F10; test: Antiproliferative activity against mouse B16F10 cells at 1 uM after 48 hrs by MTT assay relative to control; format: functional
[45] = tested on: MDA-MB-435; test: Antiproliferative activity against human MDA-MB-435 cells after 48 hrs by MTT assay; format: functional, cell-based; conditions: MDA-MB-435, 48 h

With `O=[P@@]1(c2ccccc2)O[C@H](COCc2ccccc2)[C@@H](OCc2ccccc2)[C@H](OCc2ccccc2)[C@H]1O` as the compound, how does the pEC50 [1] read?
The pEC50 was 5.31.

And the pEC50 [2]?
Its pEC50 is 4.24.

What about the Activity [3] of the same compound?
The Activity was 43%.

And the Activity [4]?
The Activity was 18%.

What about the Activity [5] of the same compound?
Its Activity is 10%.

What about the Activity [6] of the same compound?
The Activity was 16%.

What about the Activity [7] of the same compound?
Its Activity is 73%.

What about the Activity [8] of the same compound?
Its Activity is “Active”.

And the Activity [9]?
The Activity was “Active”.

What about the Activity [10] of the same compound?
The Activity was 5 µM.

What about the Activity [11] of the same compound?
The Activity was “inactive”.

And the Activity [12]?
The Activity was “Non-toxic”.

And the Activity [13]?
Its Activity is 22%.

What about the Activity [14] of the same compound?
Its Activity is 0.1 µM.

And the pEC50 [15]?
The pEC50 was 4.84.

What about the Activity [16] of the same compound?
Its Activity is 42%.

What about the Activity [17] of the same compound?
Its Activity is 0.001 µM.

And the Activity [18]?
The Activity was 17%.

And the Activity [19]?
The Activity was 0.5 µM.

What about the Activity [20] of the same compound?
The Activity was 0.001 µM.

What about the Activity [21] of the same compound?
The Activity was 0.1 µM.

What about the “growth inhibition (GI)” value [22] of the same compound?
Its value is “Active”.

What about the Activity [23] of the same compound?
The Activity was “Non-toxic”.

What about the Activity [24] of the same compound?
The Activity was 0.1 µM.

And the “growth inhibition (GI)” value [25]?
Its value is “Active”.

What about the pEC50 [26] of the same compound?
Its pEC50 is 4.19.

What about the Activity [27] of the same compound?
The Activity was 22%.

And the Activity [28]?
Its Activity is 63%.

And the “growth inhibition (GI)” value [29]?
Its value is “Active”.

What about the Activity [30] of the same compound?
The Activity was 32%.

And the pEC50 [31]?
Its pEC50 is 4.52.

What about the Activity [32] of the same compound?
The Activity was 30%.

What about the Activity [33] of the same compound?
The Activity was 40%.

And the Activity [34]?
The Activity was “Active”.

And the Activity [35]?
Its Activity is 0.5 µM.

What about the Activity [36] of the same compound?
The Activity was “Active”.

And the Activity [37]?
Its Activity is “inactive”.

And the Activity [38]?
Its Activity is “Non-toxic”.

And the Activity [39]?
The Activity was 82%.

What about the Activity [40] of the same compound?
Its Activity is “inactive”.

What about the Activity [41] of the same compound?
Its Activity is “Active”.

What about the Activity [42] of the same compound?
The Activity was “Active”.

And the pEC50 [43]?
The pEC50 was 6.28.

And the Activity [44]?
The Activity was 25%.

What about the pEC50 [45] of the same compound?
Its pEC50 is 4.86.

From ChEMBL document CHEMBL2029220, “Oxaphosphinanes: new therapeutic perspectives for glioblastoma” (J Med Chem, 2012)
